Laboratory results as given in US8759488B2, “High stability streptavidin mutant proteins” (Isis Innovation Limited, priority 2009, dated 2014).

What was measured:
[1] = cited from earlier work
[2] = Biotin-4-fluorescein (B-4-F) off-rate assay; assay type: binding
Procedure: The off rate of streptavidin or the streptavidin mutants for biotin can be easily measured using the Biotin-4-fluorescein (B-4-F) off-rate assay described in the Examples. In this assay streptavidin (or a mutant thereof) is incubated with 12 nM B-4-F for 30 minutes at 37° C., where the binding of B-4-F to streptavidin quenches fluorescence. Excess biotin (100 μM) is added and fluorescence is then measured every 10 minutes for 10-18 hours. The rate of recovery of fluorescence indicates B-4-F off-rate from the streptavidin. Thus, the quicker that the fluorescence is seen in the sample the higher is the off rate, as fluorescence only starts to increase once B-4-F has dissociated from streptavidin.
The amount of B-4-F recovered during an incubation with wildtype streptavidin is at least 9%, for example 10, 11 or 12%. The amount of B-4-F recovered after a 10 hour incubation with a mutant streptavidin of the present invention may be less than 9%, for example less than 8, 7, 6, 5, 4, 3, 2 or 1%. Particularly, the amount of B-4-F recovered may be 2-3%.
The off-rate of biotin-4-fluorescein from avidin, streptavidin or traptavidin was measured using a PHERAstar plate-reader with 480 nm excitation and 520 nm emission (BMG LABTECH). In this assay the binding of biotin-4-fluorescein to an excess of binding protein results in quenching of fluorescein emission (Kada et al., 1999, Biochim. Biophys. Acta, 1427, 33-43). As the biotin-4-fluorescein dissociates, the fluorescence recovers. The assay was performed in the presence of excess biotin so that sites left open by biotin-4-fluorescein dissociation are immediately re-filled by biotin. 1 μM protein in 10 μL PBS was added to 12 nM biotin-4-fluorescein (Invitrogen), 0.12 mg/mL BSA in 170 μL PBS and incubated for 1 hr at 37° C. 20 μL PBS or 20 μL 1 mM biotin in PBS was then added and fluorescence measurements immediately started at 37° C. Percentage dissociation was calculated as (signal with biotin−signal without biotin)/(signal without quenching−signal without biotin)×100.
Since biotin-4-fluorescein fluorescence is decreased at low pH, 100 nM streptavidin, S52G R53N streptavidin, S52G R53S streptavidin, or traptavidin was incubated with 12 nM biotin-4-fluorescein in 100 mM NaCl, 30 mM sodium citrate pH 5.0 for 3 hr at 25° C., before incubating at 37° C. and adding 100 μM biotin and incubating for various times. Samples were then placed on ice to block further dissociation, adjusted to pH 7.2 with 1M HEPES pH 8.3, and fluorescence intensity was immediately measured as above. p-values were calculated using two-tailed Student t-tests from the data at the final timepoint.

[3] = free biotin; cited from earlier work
[4] = Thermostability of the tetramer structure (SDS-PAGE); assay type: physicochemical; conditions: absence of biotin, heated 3 min
From the text: Streptavidin naturally occurs in tetrameric form i.e. made up of four streptavidin subunits. Streptavidin tetramers will however dissociate into monomeric form at high temperatures. […] For example, thermostability can be measured in terms of the temperature at which 50% of streptavidin is in the tetrameric form and 50% is in the monomeric form i.e. the temperature at which there is 50% dissociation.
Thermostability can be easily determined by heating streptavidin or a mutant thereof to a particular temperature and then placing on ice. The amounts of subunits/tetramers present can be determined using SDS-PAGE and quantifying band intensities.
3 μM streptavidin or traptavidin in PBS was heated at the indicated temperature for 3 min in a Bio-Rad DNA Engine® Peltier Thermal Cycler and then immediately placed on ice (Bayer et al., 1996, Electrophoresis, 17, 1319-1324). Samples were mixed with 6×SDS-PAGE loading buffer and loaded onto a 18% polyacrylamide gel. The 100% monomer positive control was mixed with SDS loading buffer prior to heating at 95° C. for 3 min. Band intensities were quantified using a ChemiDoc XRS imager and QuantityOne 4.6 software (Bio-Rad).

[5] = Thermostability of biotin-conjugate binding (agarose gel); conditions: for dissociation of biotinylated DNA at 70° C.: 3 min
From the text: For example, thermostability for biotin or a biotin conjugate can be measured in terms of the temperature at which 50% of the biotin or biotin conjugate is bound by the streptavidin, i.e. the temperature at which there is 50% dissociation. […] Thermostability for biotin or a biotin conjugate can be easily determined by heating streptavidin or a mutant thereof with biotin or a biotin conjugate to a particular temperature and then placing on ice. The amounts of free versus bound biotin conjugate present can be determined using an agarose gel and quantifying the band intensities.
To determine the thermostability of bioin-conjugate binding, 5.0 μM streptavidin or traptavidin in PBS was incubated with 21 nM monobiotinylated DNA in 4 μL for 30 minutes at 25° C. The samples were made up to a total volume of 10 μL with a final concentration of 100 μM biotin, 20 mM Tris acetate, 1 mM DDT, 2 mM magnesium acetate and 20 mM potassium glutamate pH 7.5 and were incubated for 5 minutes at 25° C. Samples were then heated at the indicated temperature for 3 minutes using a Thermal Cycler and cooled to 10° C. An agarose gel of 1.5% was run at 6.0V/cm in TAE at 25° C. for 45 minutes and DNA stained with ethidium bromide was visualized using a ChemiDoc XRS imager and QuantityOne 4.6 software. The percentages were calculated as 100× the intensity of the band for free DNA divided by the summed intensities of the bands for free and bound DNA. The 439 bp biotinylated DNA was prepared by PCR using Taq polymerase employing the primers Fts1 and the internally biotinylated primer bioFts2 (Eurofins) from the plasmid pJEG41-N1.

[6] = test system: biotinylated DNA with FtsK50C; assay: FtsK displacement assay; parameters: species or system E. coli; conditions: in the presence of ATP, 2 min, 25° C.
Procedure: The FtsK displacement assay was performed at 25° C. in 25 mM Tris pH 7.5, 10 mM MgCl2. 5.9 nM DNA fragment was incubated with 0.5 μM streptavidin or traptavidin for 15 min, followed by 100 μM biotin to block free biotin binding sites. 1 μM FtsK50C was added and allowed to bind to the DNA for 5 min. 2.5 mM ATP was added to start the reaction, which was stopped after 2 min with 0.1% SDS and 20 mM EDTA. Samples were incubated for 20 mM to allow FtsK50C denaturation, mixed with 10× gel loading buffer (250 mM Tris pH 7.5, 20 mM EDTA, 50% glycerol, 2.5% bromophenol blue) and loaded on a 1.5% agarose gel in 1×TBE (89 mM Tris, 89 mM boric acid, 2 mM EDTA, pH 8.3) at 10 V/cm for 2 hr at 25° C. Gels were stained with SYBR Green (Invitrogen) for 2 hr, washed in ddH2O for 30 mM, imaged using a Fuji FLA3000 scanner, and quantified using Image Gauge software (Fuji). p-values were calculated using a two-tailed Student t-test.

[7] = depending on the conjugate; cited from earlier work
[8] = assay type: binding
Procedure: AFM cantilevers (Veeco MLCT-AUHW) with a nominal spring constant of 0.01 N/m were used in all measurements and calibrated by the thermal fluctuation method (Hutter and Bechhoefer, 1993, Review of Scientific Instruments, 64, 1868-1873). Cantilevers were briefly washed in acetone and then UV irradiated for 15 minutes. Cantilevers were then briefly dipped in 0.1M NaHCO3 pH 9.0, air-dried, and coated in 0.5 mg/mL biotinamidocaproyl-Bovine Serum Albumin (biotin-BSA) (Sigma) overnight at 4° C. in a humidified chamber. Cantilevers were washed three times in PBS and then coated with 0.01-0.3 mg/mL streptavidin or […] for 15 mins at 25° C. […] dishes were coated with 0.1M NaHCO3 pH 9 and then 0.5 mg/mL non-recombinant streptavidin (from Streptomyces avidinii, Pierce) in 0.1M NaHCO3 pH 9 overnight in a humidified chamber at 4° C. Biotinylated agarose beads (Sigma) were aspirated onto the dish. Measurements were conducted at 25° C. with a custom built AFM (Rico and Moy, 2007, J. Mol. Recogniti., 20, 495-501). […] Single molecule rupture forces were determined by calculating the force in the retraction trace at the initial point of rupture, using Igor Pro 6.04 (Wavemetrics Inc.). […] The loading rate was determined as the slope of the force vs time plot before the rupturing of the single molecule bond and significance was evaluated with the Mann-Whitney test.

[9] = test system: AP-IGF1R/BirA-ER expressing COST cells; assay: Cellular imaging with Alexa Fluor 555 conjugates; assay type: cell-based
Procedure: Streptavidin and […] labeled with Alexa Fluor 555 by adding 1/10 volume of 1 M NaHCO3 pH 8.3 and then a 10-fold molar excess of Alexa Fluor 555 succinimidyl ester (Invitrogen) (stock dissolved at 1 mg/mL in dry dimethylformamide) and incubating for 4 hr at room temperature. Free dye was separated using 1 mL packed volume Sephadex G-25 (Sigma) in a poly-prep column. Fractions containing labelled protein were pooled and dye was further removed by three rounds of dialysis in PBS. COST cells were grown in DMEM with 10% Fetal Calf Serum, 50 U/mL penicillin and 50 μg/mL streptomycin. Cells were transfected using Lipofectamine 2000 (Invitrogen) following manufacturer's instructions with 0.25 μg AP-IGF1R, 0.2 μg BirA-ER and 0.05 μg H2B-ECFP per well of a 48 well plate. Cells were incubated with 10 μM biotin overnight for optimum biotinylation by BirA-ER. On the next day, cells were washed 3× in PBS with 5 mM MgCl2 (PBS/Mg) and kept thereafter at 4° C. Cells were incubated for 15 min in PBS/Mg with 1% dialyzed BSA and 0.4 μM Alexa Fluor 555 conjugated […]. Cells were washed with PBS/Mg 3× before imaging live. Cells were imaged using a wide-field DeltaVision Core fluorescent microscope (AppliedPrecision) with a 40× oil-immersion lens. ECFP (436DF20 excitation, 480DF40 emission, Chroma 86002v1 dichroic), Alexa Fluor 555 (540D420 excitation, 600DF50 emission, Chroma 84100bs polychroic), and bright-field images were collected and analyzed using softWoRx 3.6.2 software. Typical exposure times were 0.1-1.0 s and fluorescence images were background-corrected. Different samples in the same experiment were prepared, imaged and analyzed under identical conditions.

[10] = On-rate assay (biotin-4-fluorescein quenching); assay type: binding
Procedure: The on rate can be measured again using an adapted B-4-F assay as described above. […] The on rate can therefore be established by the decrease in the amount of fluorescence which occurs over the incubation time. The faster the rate of decrease in fluorescence, the higher the on rate.
The on-rate of biotin-4-fluorescein from streptavidin or traptavidin was measured in PBS on a PHERAstar plate-reader (BMG LABTECH). In this assay the binding of biotin-4-fluorescein to streptavidin/traptavidin results in quenching of the fluorescein emission (Kada et al., 1999). 20 μL 10 nM streptavidin or traptavidin was added to 180 μL 56 μM biotin-4-fluorescein and the fluorescein emission at measured every 6 s at 25° C. The concentration of free biotin-4-fluorescein was calculated as (signal with biotin−signal without biotin)/(signal without quenching−signal without biotin)×50 μM starting biotin-4-fluorescein. Linear regression using GraphPad Prism was applied to the plot of 1n free biotin-4-fluorescein against time, with the gradient equal to kon×[streptavidin or traptavidin].

[11] = 37° C., pH 7.4, excess free biotin

In the case of `O=C(O)CCCC[C@@H]1SC[C@@H]2NC(=O)N[C@@H]21` [biotin, cis-hexahydro-2-oxo H-thieno[3,4] imidazole-4-pentanoic acid], the pKa [1] is listed as “about 4”.
In the case of “avidin: Avidin (Sigma), biotin binding protein used as comparator [reference compound]”, the “biotin conjugate off-rate (biotin-4-fluorescein dissociation)” value (shortened to “biotin conjugate off-rate”) [2, 11] is reported as “dissociated very much faster than streptavidin”.
For “streptavidin: wildtype streptavidin protein comprising four wildtype subunits; core streptavidin with C-terminal His6 used in the tests [reference compound]”, the “half life of free biotin” value [3] is given as “approximately 6.6 hr”, the “off rate of biotin” value [3] is given as 2.9e-05 s⁻¹ and the “temperature at which there is 50% dissociation of tetramer into monomer” value [4] is given as about 75 °C. The “temperature at which there is 50% dissociation of tetramer into monomer” value ([4]; listed as wildtype streptavidin) was 70-75 °C, the “temperature at which there is 50% dissociation of biotin or biotin conjugate” value [5] was 50-60 °C and the “dissociation of biotinylated DNA at 70° C.” value [5] was “complete dissociation”. The “biotin conjugate off-rate” value [2, 11] was “dissociated steadily”, the “amount of B-4-F recovered” value ([2]; 10 hour incubation, 37° C., excess biotin) was “at least 9%” and the “dissociated from the DNA by FtsK50C translocation” value [6] was 33%. For the same molecule, the “half life for conjugated biotin” value [7] was 6 to 100 h.
In the case of “traptavidin: S52G R53D mutant of core streptavidin with His6 tag, tetramer; subunit SEQ ID NO. 5”, the “temperature at which there is 50% dissociation of tetramer into monomer” value [4] is reported as about 85 °C, the “dissociation of biotinylated DNA at 70° C.” value [5] is reported as “most ligand was still bound” and the “mechanical stability to a biotinylated ligand” value [8] is reported as “significantly greater mechanical stability than streptavidin”. For the same molecule, the “biotin conjugate off-rate” value [2, 11] was “dramatically reduced biotin conjugate off-rate”, the “change at the initial time-point (dissociation)” value [2, 11] was about 2% and the “dissociation over the subsequent 12 hr” value [2, 11] was “very little dissociation”. The “off-rate at pH 5 of biotin-4-fluorescein” value ([2]; pH 5, 37° C.) was “significantly slower than streptavidin”, the “binding to untransfected neighboring cells expressing only AP-IGF1R” value ([9]; Alexa Fluor 555 conjugate) was “no detectable binding” and the “signal on AP-IGF1R/BirA-ER expressing cells” value ([9]; Alexa Fluor 555 conjugate) was “strong signal”. The “specificity for cellular imaging” value ([9]; Alexa Fluor 555 conjugate) was “high specificity”, the “staining compared with streptavidin” value ([9]; each conjugated to Alexa Fluor 555) was “comparable” and the “binding to equivalently treated cells when pre-blocked with free biotin” value ([9]; pre-blocked with free biotin) was “minimal binding”. The “on-rate reduction relative to streptavidin” value [10] was “approximately 2 fold” and the “dissociated from the DNA by FtsK50C translocation” value [6] was 11%.
